Measurements: BindingDB's records for doi:10.7270/Q2V1236D (Burnham Center For Chemical Genomics, 2009)

These molecules were tested against his6-Siah1 (aa 81-282) (Homo sapiens, UniProt Q8IUQ4) (assay: Siah-1 binding antagonists, dose response, biochemical, TR-FRET (AID 2141)).
his6-Siah1 (aa 81-282), sequence (Q8IUQ4 whole entry, looked up, the tested form may be a part): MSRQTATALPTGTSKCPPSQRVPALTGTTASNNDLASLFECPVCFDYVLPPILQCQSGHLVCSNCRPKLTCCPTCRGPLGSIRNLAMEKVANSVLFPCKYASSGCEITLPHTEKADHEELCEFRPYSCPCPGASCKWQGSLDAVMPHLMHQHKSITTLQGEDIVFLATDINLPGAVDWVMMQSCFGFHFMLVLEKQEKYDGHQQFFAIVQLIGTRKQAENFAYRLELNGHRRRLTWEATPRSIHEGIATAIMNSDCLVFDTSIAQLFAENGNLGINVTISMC

SMILES | IC50 [µM]
CCOC(=O)C1(C)CC(=Nc2ccc(O)cc2)C(=O)N1c1ccc(O)cc1 (stereo not given) | 50.7
C[N+]1(CCNC(=O)CN=O)CCCCC1 | 130
O=C(Nc1ccc(Br)cc1)c1ccc(-n2c(O)c3c(c2O)CC=CC3)cc1 [4-[1,3-bis(oxidanylidene)-3a,4,7,7a-tetrahydroisoindol-2-yl]-N-(4-bromophenyl)benzamide] | 4.27

Next, values leading:

IC50 [µM] | SMILES
2.93 | CC1(C)OC(C)(C)C(=CNc2ccc(O)cc2)C1=O [4-[(4-hydroxyanilino)methylene]-2,2,5,5-tetramethyldihydro-3(2H)-furanone]
6.69 | CC(C)(C)c1cc(-c2cs/c(=N\c3ccccc3)n2Cc2ccc(C(=O)O)cc2)cc(C(C)(C)C)c1O [4-[[4-(3,5-ditert-butyl-4-oxidanyl-phenyl)-2-phenylazanyl-1,3-thiazol-3-ium-3-yl]methyl]benzoic acid;bromide]
